Several values for one entry are separate records, joined by “and”; a condition that tells them apart may be missing. Equal values may be shown once. Read-outs that look alike come from different tables or passages of the source.
Key:
[1] = system: Plasmodium falciparum (Pf) (intraerythrocytic forms, NF54 strain); assay: In vitro antiplasmodial activity; assay type: cell-based; conditions: for SI Pf (selectivity index): cytotoxicity L6 vs Pf
Method: (§1) After isolation, all alkaloids were tested in vitro for antiplasmodial and antitrypanosomal activity against Plasmodium falciparum (Pf) and Trypanosoma brucei rhodesiense (Tbr). Furthermore, to assess their selectivity against the parasites, cytotoxicity against L6 rat skeletal myoblasts, as mammalian control cells, was tested (Table 4).
(§2) In vitro assays for the bioactivity of the isolated Buxus-alkaloids against Tbr (bloodstream trypomastigotes, STIB 900 strain), Trypanosoma cruzi (Tc) (amastigotes, Tulahuen C4 strain), Leishmania donovani (Ldo) (amastigotes, MHOM-ET-67/L82 strain) and Pf (intraerythrocytic forms, NF54 strain), and cytotoxicity tests against mammalian cells (L6-cell line from rat-skeletal myoblasts), were performed at the Swiss Tropical and Public Health Institute (Swiss TPH, Basel, Switzerland) according to established standard protocols.

[2] = system: Trypanosoma brucei rhodesiense (Tbr) (bloodstream trypomastigotes, STIB 900 strain); assay: In vitro antitrypanosomal activity; assay type: cell-based; conditions: for SI Tbr (selectivity index): cytotoxicity L6 vs Tbr
Method: as §1
as §2, with “protocols. […] Such a pattern of activity was also observed in other studies.” for “protocols.”

[3] = Cytotoxicity against mammalian control cells; assay type: cell-based, rat; conditions: rat
Method: as §1, §2

[4] = system: L6 rat skeletal myoblasts; assay: Cytotoxicity against mammalian control cells; assay type: cell-based; conditions: L6 cell line; for Cytotox. IC50: mean of n = 2 (fluctuation range) or * n = 3 (SD); for IC50: read-out: Cytotox. IC50 (in parentheses) (converted)
Method: as §1, §2

[5] = NF54 strain, read-out: Pf IC50 (in parentheses) (converted)
[6] = Plasmodium falciparum, NF54, NF54 strain, mean of n = 2 (fluctuation range) or * n = 3 (SD), read-out: Pf IC50
[7] = Plasmodium falciparum, NF54, NF54 strain, read-out: Pf IC50 (in parentheses) (converted)
[8] = Trypanosoma brucei, STIB 900 strain, mean of n = 2 (fluctuation range) or * n = 3 (SD), read-out: Tbr IC50
[9] = Trypanosoma brucei, STIB 900 strain, read-out: Tbr IC50 (in parentheses) (converted)
[10] = NF54 strain, mean of n = 2 (fluctuation range) or * n = 3 (SD)
[11] = STIB 900 strain, mean of n = 2 (fluctuation range) or * n = 3 (SD)
[12] = STIB 900 strain, read-out: Tbr IC50 (in parentheses) (converted)
[13] = L6 rat skeletal myoblast cells, L6 cell line, mean of n = 2 (fluctuation range) or * n = 3 (SD), read-out: Cytotox. IC50
[14] = L6 rat skeletal myoblast cells, L6 cell line, read-out: Cytotox. IC50 (in parentheses) (converted)

SMILES	IC50 [1, 5] [µM]	Pf IC50 [1, 10] [µg/mL]	Tbr IC50 [2, 11] [µg/mL]	IC50 [2, 12] [µM]	IC50 [1, 6] [µg/mL]	IC50 [1, 7] [µM]	SI Pf (selectivity index) [1]	IC50 [2, 8] [µg/mL]	IC50 [2, 9] [µM]	SI Tbr (selectivity index) [2]	Cytotox. IC50 [4] [µg/mL]	IC50 [4] [µM]	other results
CCN(CC)CCCC(C)Nc1ccnc2cc(Cl)ccc12 (stereo not shown) [Chloroquine, reference compound]													IC50 ([1]; Plasmodium falciparum, NF54, read-out: Pf IC50): 0.006 ± 0.001 µg/mL; IC50 ([1]; Plasmodium falciparum, NF54, read-out: Pf IC50 (in parentheses)): 0.019 µM
C/C=C(\C)C(=O)O[C@@H]1C[C@@]2(C)[C@@H]3C=C[C@H]4[C@](C)(CO)[C@@H](N(C)C)CC[C@@]45C[C@@]35CC[C@]2(C)[C@H]1[C@H](C)NC [Compound 3, O-tigloylcyclomicrophylline-B]	0.98				0.5 ± 0.06	< 1	72	4.6 ± 0.005	9	8			IC50 [3]: 35.8 µg/mL and 69.9 µM
C/C=C(\C)C(=O)O[C@@H]1C[C@@]2(C)[C@@H]3C=C[C@H]4[C@](C)(CO)[C@@H](N(C)C)CC[C@@]45C[C@@]35CC[C@]2(C)[C@H]1[C@H](C)N(C)C [Compound 4, O-tigloylcyclomicrophylline-A]	0.7				0.35 ± 0.08	< 1	34	1.5 ± 0.76	2.9	8			IC50 [3]: 12 µg/mL and 22.8 µM
CC(C1C(O)CC2(C)C3C=CC4C(C)(CO)C(N(C)C)CCC45CC35CCC12C)N(C)C (stereo not shown) [Compound 5, Cyclomicrophylline-A]	1.76	0.78 ± 0.08	1.04 ± 0.27	2.34							44 ± 2.3	99	
CN[C@@H](C)[C@H]1[C@H](OC(=O)c2ccccc2)C[C@@]2(C)[C@@H]3C=C[C@H]4[C@](C)(CO)[C@@H](N(C)C)CC[C@@]45C[C@@]35CC[C@]12C [Compound 7, Cyclomicrophyllidine-B]					0.11 ± 0.01	0.2	145	1.9 ± 0.3	3.6	8			IC50 [3]: 16 µg/mL and 29.9 µM
CN[C@@H](C)[C@H]1CC[C@@]2(C)[C@@H]3CC[C@H]4C(C)(C)[C@@H](NC)[C@H](OC(=O)c5ccccc5)C[C@@]45C[C@@]35CC[C@]12C [Compound 8, O-benzoyl-cycloprotobuxoline-D]					0.09 ± 0.03	0.18	74	0.55 ± 0.18	1.1	12			IC50 [3]: 6.65 µg/mL and 13.1 µM
C[C@@H]([C@H]1[C@H](O)C[C@@]2(C)[C@@H]3CC[C@@H]4[C@@]5(CCC(=O)[C@@]4(C)CO)C[C@@]35CC[C@]12C)N(C)C [Compound 11, 29-hydroxy-cyclomikuranine-L]					0.9 ± 0.13	2.2	49	2.9 ± 1	7	15			IC50 [3]: 44 µg/mL and 105 µM
C=C1C2CC[C@@H]3[C@]4(CC[C@]5(C)[C@@H](C(C)=O)[C@H](O)C[C@@]35C)C[C@]24CC[C@@H]1NC (stereo partly shown) [Compound 17, Cyclomicrobuxinine]					4.1 ± 0.8	10.9	7	48 ± 0.2	129	0.6			IC50 [3]: 30.5 µg/mL and 82 µM
C=C1[C@@H](N(C)C)CC[C@]23C[C@]24CC[C@]2(C)[C@@H](C(C)=O)[C@H](O)C[C@@]2(C)[C@@H]4CC[C@@H]13 [Compound 18, Cyclomicrobuxine]	6.8	2.6 ± 0.005	16.9 ± 2.3	44							26.8 ± 8.8	69.6	
C[C@@H]([C@H]1CC[C@H]2[C@@H]3CC=C4C[C@@H](O)CC[C@]4(C)[C@H]3CC[C@]12C)N(C)C [Compound 19, Irehine]	3.8	1.3 ± 0.35	2.2 ± 0.07	6.4							13.4 ± 0.5	38.8	
CC(=O)[C@H]1[C@H](O)C[C@@]2(C)[C@@H]3CC[C@@H]4C(=CC3=CC[C@]12C)CC[C@H](N(C)C)C4(C)C [Compound 20, 16-α-hydroxybuxaminone]	4	1.6 ± 0.57	5.26 ± 0.3	13.2							45 ± 1	113	
CC(=O)O[C@@H]1C[C@@]2(C)[C@@H]3CC[C@@H]4C(=CC[C@H](N(C)C)C4(C)C)CC3=CC[C@]2(C)[C@H]1[C@H](C)NC(=O)c1ccccc1 [Compound 23, N-benzoyl-O-acetylbuxadine-E]					4.2 ± 0.4	7.7	7	3.1 ± 0.6	5.7	9			IC50 [3, 13]: 27.5 ± 16 µg/mL; IC50 [3, 14]: 50.4 µM
CN[C@H]1CC=C2CC3=CC[C@]4(C)[C@@H]([C@H](C)NC(C)=O)CC[C@@]4(C)[C@@H]3CC[C@H]2C1(C)C [Compound 24, N20-acetylbuxadine-G]					2.3 ± 0.27	5.6	7	0.52 ± 0.27	1.3	33			IC50 [3, 13]: 16.9 ± 1.1 µg/mL; IC50 [3, 14]: 41 µM
CN[C@H]1CC=C2CC3=CC[C@@]4(C)[C@@](C)(CC[C@]4(O)[C@H](C)O)[C@@H]3CC[C@H]2C1(C)C [Compound 25, 17,20-dihydroxybuxadine-M]					3.6 ± 0.05	9.3	12	6.7 ± 0.49	17.3	7			IC50 [3, 13]: 44.5 ± 5.5 µg/mL; IC50 [3, 14]: 115 µM
Nc1nc(N)nc(Nc2ccc([As]3SCC(CO)S3)cc2)n1 (stereo not shown) [Melarsoprol, reference compound]													IC50 ([2]; Trypanosoma brucei, read-out: Tbr IC50): 0.005 ± 0.001 µg/mL; IC50 ([2]; Trypanosoma brucei, read-out: Tbr IC50 (in parentheses)): 0.013 µM
COc1cc([C@@H]2c3cc4c(cc3[C@H](O)[C@H]3COC(=O)[C@H]23)OCO4)cc(OC)c1OC [Podophyllotoxin, reference compound]													IC50 ([3]; L6 cell line, mean of n = 2 (fluctuation range) or * n = 3 (SD), read-out: Cytotox. IC50): 0.006 ± 0.001 µg/mL

Further lines, with some results ahead:

IC50 [1, 5] [µM]	Pf IC50 [1, 10] [µg/mL]	Tbr IC50 [2, 11] [µg/mL]	IC50 [2, 12] [µM]	SMILES	IC50 [1, 6] [µg/mL]	IC50 [1, 7] [µM]	SI Pf (selectivity index) [1]	IC50 [2, 8] [µg/mL]	IC50 [2, 9] [µM]	SI Tbr (selectivity index) [2]	Cytotox. IC50 [4] [µg/mL]	IC50 [4] [µM]	other results
0.7	0.4 ± 0.02	0.69 ± 0.06	1.3	CC(C1C(OC(=O)c2ccccc2)CC2(C)C3C=CC4C(C)(CO)C(N(C)C)CCC45CC35CCC12C)N(C)C (stereo not shown) [Compound 6, Cyclomicrophyllidine-A]							9.3 ± 3	17	
3.8	2.15 ± 0.29	1.35 ± 0.45	2.4	CC(=O)OC[C@]1(C)[C@@H](NC(=O)c2ccccc2)CC[C@]23C[C@]24C(=O)C[C@]2(C)[C@@H]([C@H](C)N(C)C)CC[C@@]2(C)[C@@H]4CC[C@@H]13 [Compound 9, N-benzoyl-O-acetyl-cycloxo-buxoline-F]							41 ± 0.7	73	
3.5	1.4 ± 0.44	2.5 ± 0.1	6.3	C[C@@H]([C@H]1[C@H](O)C[C@@]2(C)[C@@H]3CC[C@H]4C(C)(C)C(=O)C=C[C@@]45C[C@@]35CC[C@]12C)N(C)C [Compound 12, Nb-dimethylcycloxobuxoviricine]							19 ± 1.2	47.6	
7.3	3.1 ± 0.24	53 ± 1	124	CC(=O)N[C@@H](C)[C@H]1CC[C@@]2(C)[C@@H]3CC[C@@H]4C(=CC3=CC[C@]12C)CC[C@H](N(C)C)C4(C)C [Compound 21, N20-acetylbuxamine-E]							54.8 ± 1.1	129	
		3.4 ± 1		CC(=O)O[C@@H]1C[C@@]2(C)[C@@H]3CC[C@@H]4C(=CC3=CC[C@]2(C)[C@H]1[C@H](C)NC(=O)c1ccccc1)CC[C@H](N(C)C)C4(C)C [Compound 22, N-benzoyl-O-acetylbuxodienine-E]							8.5 ± 0.1	15.6	

Reference: publication PMC8228141, “Antiprotozoal Nor-Triterpene Alkaloids from Buxus sempervirens L” (Antibiotics, 2021)
